Experimental data as given in patent US20260242391A1 (priority 2023, published 2026).
Read-outs that look alike come from different tables or passages of the source.

What was measured:
HL-60 [1] = system: HL-60
HL-60 [2] = assay: HL-60 differentiation potency; type: cell-based; conditions: Homo sapiens
MDS-L cells [3] = conditions: human
Experimental: MDS-L differentiation assay.
(§1) MDS-L were cultured in RPMI (17-105-CV, Corning) without phenol red and supplemented with 2 mM glutamine and 10% FBS. Cells first expanded in IL-3 until 70% confluence then pre-conditioned for 14 days with IL-3 (200-03, PeproTech), GCSF (300-23, PeproTech), and EPO (287-TC, R&D Systems) to promote erythroid and myeloid differentiation. A density of 10,000 cells per well were used in phenotypic assays. MDSL cells were spun and treatment media was replaced with media containing APC Anti-CD235a (GlyA) (551336, BD Biosciences) (1.25 μL per 50 L test) and incubated for 1 hour at 4° C. Cells were washed then counter stained with SYTOX-Green 1 M per 100 L prior to flow cytometry analysis. Dose response and pharmacological assays were analyzed using a ZE5 Cell Analyzer (BioRad) equipped with Everest software. Single, live, cells were analyzed for GlyA expression using FlowJo v10.7.2 software.

MDS-L cells [4] = assay: CFU assays with MDS-L cells; type: cell-based
MDS-L cells [5] = assay: Loss of CD71 in MDS-L cells; type: cell-based
MDS-L cells [6] = assay: cells; conditions: read-out: MDS-L GlyA induction EC50
Experimental: MDS-L differentiation assay.
as §1

MDS-L cells [7] = system: MDS-L cells
HL-60 [8] = system: HL-60; remark: listed apart in the source
HL-60 [9] = assay: HL-60 differentiation potency; type: cell-based; conditions: Homo sapiens; remark: listed apart in the source
MDS-L cells [10] = assay: Labile heme levels of MDS-L cells; type: cell-based; conditions: over relevant time periods (FIG. 4B)

Row | SMILES | IC50 (HL-60 [1]) [nM] | EC50 (HL-60 [2]) [nM] | Maximal MDS-L GlyA fold induction (MDS-L cells [3]) [fold] | EC50 (MDS-L cells [6]) [nM] | Terminal differentiation of MDS-L cells to CFU-Es while decreasing BFU-E, CFU-GM and CFU-GEMM type colonies (MDS-L cells [4]) | Loss of CD71 (MDS-L cells [5]) | Induction in apoptosis (MDS-L cells [7]) | further results
1 | C[C@H]1[C@H](OC2CCc3cc(C(=O)O)ccc32)O[C@@H]2O[C@@]3(C)CC[C@H]4[C@H](C)CC[C@@H]1[C@@]24OO3 (stereo partly drawn) [Compound 225, 1-(((3R,5aS,6R,8aS, 9R,10R,12R, 12aR)-3,6,9-trimethyldeca-hydro-12H-3,12-epoxy[1,2]dioxepino[4,3-i]isochromen-10-yl)oxy)-2,3-dihydro-1H-indene-5-carboxylic acid] | 20000 | 203 |  |  |  |  |  | 
2 | CCO[C@H]1O[C@@H]2O[C@@]3(C)CC[C@H]4[C@H](C)CC[C@@H]([C@H]1C)[C@@]24OO3 [Arteether, arteether] |  |  | 3.82 | 580 | efficaciously induced terminal differentiation | efficaciously promoted the loss of CD71 | no significant induction | 
3 | C[C@H]1[C@@H](Oc2ccc(C(=O)C(=O)O)cc2)O[C@@H]2O[C@@]3(C)CC[C@H]4[C@H](C)CC[C@@H]1[C@@]24OO3 [Compound 128, 2-oxo-2-(4-(((3R,5aS,6R,8aS, 9R,10S,12R, 12aR)-3,6,9-trimethyldeca-hydro-12H-3,12-epoxy[1,2]dioxepino[4,3-i]isochromen-10-yl)oxy)phenyl) acetic acid] |  |  |  |  |  |  |  | IC50 (HL-60 [8]): 20000 nM; EC50 (HL-60 [9]): 1220 nM

More lines, main results first:

Row | IC50 (HL-60 [1]) [nM] | EC50 (HL-60 [2]) [nM] | Maximal MDS-L GlyA fold induction (MDS-L cells [3]) [fold] | EC50 (MDS-L cells [6]) [nM] | SMILES | Terminal differentiation of MDS-L cells to CFU-Es while decreasing BFU-E, CFU-GM and CFU-GEMM type colonies (MDS-L cells [4]) | Loss of CD71 (MDS-L cells [5]) | Induction in apoptosis (MDS-L cells [7]) | further results
4 | 20000 | 16.2 |  |  | CC(C)[C@H](NC(=O)Cc1ccc(O[C@H]2O[C@@H]3O[C@@]4(C)CC[C@H]5[C@H](C)CC[C@@H]([C@H]2C)[C@@]35OO4)cc1)C(=O)O [Compound 302, (2-(4-(((3R,5aS,6R,8aS, 9R,10S,12R, 12aR)-3,6,9-trimethyldeca-hydro-12H-3,12-epoxy[1,2]dioxepino[4,3-i]isochromen-10-yl)oxy)phenyl)acetyl)-L-valine] |  |  |  | 
5 | 20000 | 156 |  |  | C[C@H]1[C@@H](OC[C@H]2CC[C@@H](C(=O)N[C@H]3CC[C@@H](C(=O)O)C3)CC2)O[C@@H]2O[C@@]3(C)CC[C@H]4[C@H](C)CC[C@@H]1[C@@]24OO3 [Compound 267, (1R,3S)-3-((1R,4R)-4-((((3R,5aS,6R,8aS, 9R,10S,12R, 12aR)-3,6,9-trimethyldeca-hydro-12H-3,12-epoxy[1,2]dioxepino[4,3-i]isochromen-10-yl)oxy)methyl)cyclohexane-1-carboxamido) cyclopentane-1-carboxylic acid] |  |  |  | 
6 |  |  | 6.84 | 150 | C[C@H]1[C@H](N2CCS(=O)(=O)CC2)O[C@@H]2O[C@@]3(C)CC[C@H]4[C@H](C)CC[C@@H]1[C@@]24OO3 [artemisone] | efficaciously induced terminal differentiation | efficaciously promoted the loss of CD71 | no significant induction | Levels of labile heme in MDS-L cells (MDS-L cells [10]): efficiently reduced
